From patent publication US10626081B2, “Farnesoid X receptor agonists and uses thereof” (Metacrine, Inc., priority 2015, dated 2020) come the findings set out here.

Assay [1] addresses T1, FXR (Homo sapiens, UniProt Q96RI1).
T1 construct: expressed in transfected cells; host or cells: CV-1 cells
T1 sequence (Q96RI1 1-486): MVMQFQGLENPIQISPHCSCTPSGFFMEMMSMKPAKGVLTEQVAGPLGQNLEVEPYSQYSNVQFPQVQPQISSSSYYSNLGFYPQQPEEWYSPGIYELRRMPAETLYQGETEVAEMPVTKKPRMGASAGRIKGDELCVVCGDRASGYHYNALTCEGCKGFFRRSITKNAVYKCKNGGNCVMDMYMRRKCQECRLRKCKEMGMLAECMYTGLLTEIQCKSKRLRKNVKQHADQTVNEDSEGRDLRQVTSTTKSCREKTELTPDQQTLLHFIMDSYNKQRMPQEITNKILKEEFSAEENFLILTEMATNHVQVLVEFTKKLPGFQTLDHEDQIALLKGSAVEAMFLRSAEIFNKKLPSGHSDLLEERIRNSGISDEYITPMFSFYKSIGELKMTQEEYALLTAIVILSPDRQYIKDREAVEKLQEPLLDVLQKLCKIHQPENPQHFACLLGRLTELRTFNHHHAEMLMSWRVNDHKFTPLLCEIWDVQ
T1 sequence (P19793 1-462 partner): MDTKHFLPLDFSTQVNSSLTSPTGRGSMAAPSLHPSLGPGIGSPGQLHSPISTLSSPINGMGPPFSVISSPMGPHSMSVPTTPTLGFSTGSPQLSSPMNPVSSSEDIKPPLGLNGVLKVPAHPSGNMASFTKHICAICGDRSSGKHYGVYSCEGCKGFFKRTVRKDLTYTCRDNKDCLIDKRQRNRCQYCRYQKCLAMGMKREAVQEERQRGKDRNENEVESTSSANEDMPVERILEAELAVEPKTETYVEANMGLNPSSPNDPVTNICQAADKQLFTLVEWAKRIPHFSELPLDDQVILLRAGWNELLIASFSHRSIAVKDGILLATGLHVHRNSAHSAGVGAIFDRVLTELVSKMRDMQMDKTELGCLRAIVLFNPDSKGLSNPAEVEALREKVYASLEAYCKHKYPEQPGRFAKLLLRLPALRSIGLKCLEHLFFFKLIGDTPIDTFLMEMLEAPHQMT
Description: In Vitro FXR Assay (TK): TK-ECRE-luc reporter in transfected CV-1 cells. The assay is classed as cell-based. As to conditions: CV-1 cells transfected with hFXR, hRXR, 18 h incubation, luminescence. The gist of the method: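 CV-1 cells in charcoal-stripped FBS medium were transiently cotransfected with hFXR, hRXR, TK-ECRE-luc and pCMX-YFP plasmids. After 18 h, compounds serially diluted in DMSO were added for 18 h at 37 °C, 5% CO2, then cells were lysed and luminescence read.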

Assay [2] has as its target T1, FXR. Description: In Vitro FXR Assay (PGL3): luciferase reporter in transfected CV-1 cells. As to conditions: CV-1 cells transfected with hFXR, hRXR, PGL3-ECRE*6-luc; 18 h incubation; luminescence. Type of assay: cell-based. The gist of the method:
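CV-1 cells in charcoal-stripped FBS were transiently co-transfected with full-length human FXR, RXR, an ECRE×6-luciferase reporter, β-gal and YFP plasmids. Transfected cells were reseeded onto half-log compound dilutions and incubated 18 h. Luciferase luminescence was read after lysis, and EC50 was determined.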
On the technique in general: Reporter assays use an easily measured gene product as a stand-in for the process of interest.

Molecules are shown by their SMILES. pEC50: −log10 of the molar value. A value given as a limit tells only on which side of the number the result lay.

In the case of `CCOC(=O)/C=C/c1cccc(N(Cc2ccc(-c3ccc(N(C)C)cc3)cc2)C(=O)C2CCCCC2)c1` [compound 84, (E)-Ethyl 3-(3-(N-((4′-(dimethylamino)-[1,1′-biphenyl]-4-yl)methyl)cyclohexanecarboxamido)phenyl) acrylate], in assay [1], the pEC50 is at least 6.00. For the same compound, the “Cmpd/Fex (ratio of the EC50 for the test compound relative to the EC50 of the Fexaramine control)” value in assay [2] is “+++ (‘+++’ means Cmpd/Fex < 10)”.

`COC(=O)/C=C/c1cccc(N(Cc2ccc(-c3ccc(N(C)C)cc3)cc2)C(=O)[C@H]2CC[C@H](O)CC2)c1` [compound 19, trans-(E)-Methyl 3-(3-(N-((4′-(dimethylamino)-[1,1′-biphenyl]-4-yl)methyl)-4-hydroxycyclohexanecarboxamido)phenyl)acrylate] had a pEC50 in assay [1] of at least 6.00. In addition, the “Cmpd/Fex (ratio of the EC50 for the test compound relative to the EC50 of the Fexaramine control)” value in assay [2] is “+++ (‘+++’ means Cmpd/Fex < 10)”.

In assay [1], `COC(=O)/C(C)=C/c1cccc(N(Cc2ccc(-c3ccc(N(C)C)cc3)cc2)C(=O)C2CCCCC2)c1` [compound 63, (E)-Methyl 3-(3-(N-((4′-(dimethylamino)-[1,1′-biphenyl]-4-yl)methyl)cyclohexanecarboxamido)phenyl)-2-methylacrylate] showed a pEC50 of 5.00 to 6.00. The “Cmpd/Fex (ratio of the EC50 for the test compound relative to the EC50 of the Fexaramine control)” value in assay [2] was “+++ (‘+++’ means Cmpd/Fex < 10)”.

As for `COC(=O)/C=C/c1cccc(N(Cc2ccc(-c3ccc(C)c(OC)c3)cc2)C(=O)C2CCCCC2)c1` [compound 58, (E)-Methyl 3-(3-(N-((3′-methoxy-4′-methyl-[1,1′-biphenyl]-4-yl)methyl)cyclohexanecarboxamido)phenyl) acrylate], the pEC50 in assay [1] was 5.00 to 6.00. The “Cmpd/Fex (ratio of the EC50 for the test compound relative to the EC50 of the Fexaramine control)” value in assay [2] was “+++ (‘+++’ means Cmpd/Fex < 10)”.

On to `COC(=O)/C=C/c1cccc(N(Cc2ccc(-c3ccc(N(C)C)cc3)cc2)C(=O)[C@H]2CC[C@H](OC)CC2)c1` [compound 9, (E)-Methyl 3-(3-((1s,4s)-N-((4′-(dimethylamino)-[1,1′-biphenyl]-4-yl)methyl)-4-methoxycyclohexanecarboxamido)phenyl)acrylate], for which, in assay [1], the pEC50 is at least 6.00. Also, the “Cmpd/Fex (ratio of the EC50 for the test compound relative to the EC50 of the Fexaramine control)” value in assay [2] was “+++ (‘+++’ means Cmpd/Fex < 10)”.

In turn, `COC(=O)/C=C/c1cccc(N(Cc2ccc(-c3cncs3)cc2)C(=O)C2CCCCC2)c1` [compound 69, (E)-Methyl 3-(3-(N-(4-(thiazol-5-yl)benzyl)cyclohexanecarboxamido)phenyl) acrylate] showed a pEC50 in assay [1] of 5.00 to 6.00. Also, the “Cmpd/Fex (ratio of the EC50 for the test compound relative to the EC50 of the Fexaramine control)” value in assay [2] is recorded as “+ (‘+’ means Cmpd/Fex > 100)”.

Compound `COC(=O)/C=C/c1cccc(N(Cc2ccc(-c3cccnc3)cc2)C(=O)C2CCCCC2)c1` [compound 29, (E)-Methyl 3-(3-(N-(4-(pyridin-3-yl)benzyl)cyclohexanecarboxamido)phenyl) acrylate] had a negative-log EC50 (pEC50) in assay [1] of 5.00 to 6.00. Also, the “Cmpd/Fex (ratio of the EC50 for the test compound relative to the EC50 of the Fexaramine control)” value in assay [2] is “++ (‘++’ means Cmpd/Fex > 10 & < 100)”.

With `COC(=O)/C=C/c1cccc(N(Cc2ccc(-c3ccc(N(C)C)cc3)cc2F)C(=O)C2CCCCC2)c1` [compound 51, (E)-methyl 3-(3-(N-((4′-(dimethylamino)-3-fluoro-[1,1′-biphenyl]-4-yl)methyl)cyclohexanecarboxamido)phenyl)acrylate], the pEC50 in assay [1] was at least 6.00. In addition, in assay [2], the “Cmpd/Fex (ratio of the EC50 for the test compound relative to the EC50 of the Fexaramine control)” value is listed as “+++ (‘+++’ means Cmpd/Fex < 10)”.

In assay [1], `COC(=O)/C=C/c1cccc(N(Cc2ccc(-c3c(F)cccc3F)cc2)C(=O)C2CCCCC2)c1` [compound 59, (E)-Methyl 3-(3-(N-((2′,6′-difluoro-[1,1′-biphenyl]-4-yl)methyl)cyclohexanecarboxamido)phenyl) acrylate] had a pEC50 of 5.00 to 6.00. Further, the “Cmpd/Fex (ratio of the EC50 for the test compound relative to the EC50 of the Fexaramine control)” value in assay [2] is on record as “+ (‘+’ means Cmpd/Fex > 100)”.

On to `C=C(C)c1ccc(-c2ccc(CN(C(=O)C3CCCCC3)c3cccc(/C=C/C(=O)OC)c3)cc2)cc1` [compound 71, (E)-Methyl 3-(3-(N-((4′-(prop-1-en-2-yl)-[1,1′-biphenyl]-4-yl)methyl)cyclohexanecarboxamido)phenyl) acrylate], for which the pEC50 in assay [1] is 5.00 to 6.00. In addition, the “Cmpd/Fex (ratio of the EC50 for the test compound relative to the EC50 of the Fexaramine control)” value in assay [2] is listed as “+++ (‘+++’ means Cmpd/Fex < 10)”.

`CCCC(=O)N(Cc1ccc(-c2ccc(N(C)C)cc2)cc1)c1cccc(/C=C/C(=O)OC)c1` [compound 2, (E)-Methyl 3-(3-(N-((4′-(dimethylamino)-[1,1′-biphenyl]-4-yl)methyl)butyramido)phenyl)acrylate]: the negative-log EC50 (pEC50) in assay [1] was 5.00 to 6.00. In addition, in assay [2], the “Cmpd/Fex (ratio of the EC50 for the test compound relative to the EC50 of the Fexaramine control)” value is recorded as “++ (‘++’ means Cmpd/Fex > 10 & < 100)”.

Take `COC(=O)/C=C/c1cccc(N(Cc2ccc(-c3ccc(F)cc3)cc2)C(=O)C2CCCCC2)c1` [compound 25, (E)-Methyl 3-(3-(N-((4′-fluoro-[1,1′-biphenyl]-4-yl)methyl)cyclohexanecarboxamido)phenyl)acrylate]: in assay [1], the pEC50 was 5.00 to 6.00. Besides, in assay [2], the “Cmpd/Fex (ratio of the EC50 for the test compound relative to the EC50 of the Fexaramine control)” value is listed as “++ (‘++’ means Cmpd/Fex > 10 & < 100)”.

`COC(=O)/C=C/c1cccc(N(Cc2ccc(N3CCOCC3)cc2)C(=O)C2CCCCC2)c1` [compound 77, (E)-Methyl 3-(3-(N-(4-morpholinobenzyl)cyclohexane-carboxamido)phenyl)acrylate]: the pEC50 in assay [1] was 5.00 to 6.00. In addition, the “Cmpd/Fex (ratio of the EC50 for the test compound relative to the EC50 of the Fexaramine control)” value in assay [2] is given as “+ (‘+’ means Cmpd/Fex > 100)”.

As to `COC/C=C/c1cccc(N(Cc2ccc(-c3ccc(N(C)C)cc3)cc2)C(=O)C2CCCCC2)c1` [compound 44, (E)-N-((4′-(Dimethylamino)-[1,1′-biphenyl]-4-yl)methyl)-N-(3-(3-methoxyprop-1-en-1-yl)phenyl)cyclohexanecarboxamide], in assay [1], the pEC50 was 5.00 to 6.00. The “Cmpd/Fex (ratio of the EC50 for the test compound relative to the EC50 of the Fexaramine control)” value in assay [2] is reported as “+++ (‘+++’ means Cmpd/Fex < 10)”.

For `COC(=O)/C=C/c1ccc(C)c(N(Cc2ccc(-c3ccc(N(C)C)cc3)cc2)C(=O)C2CCCCC2)c1` [compound 42, (E)-Methyl 3-(3-(N-((4′-(dimethylamino)-[1,1′-biphenyl]-4-yl)methyl)cyclohexanecarboxamido)-4-methylphenyl)acrylate], the pEC50 in assay [1] is 5.00 to 6.00. The “Cmpd/Fex (ratio of the EC50 for the test compound relative to the EC50 of the Fexaramine control)” value in assay [2] is on record as “+++ (‘+++’ means Cmpd/Fex < 10)”.

`COC(=O)/C=C/c1cccc(N(Cc2ccc(-c3cccc(O)c3)cc2)C(=O)C2CCCCC2)c1` [compound 55, (E)-Methyl 3-(3-(N-((3′-hydroxy-[1,1′-biphenyl]-4-yl)methyl)cyclohexanecarboxamido)phenyl) acrylate] showed a pEC50 in assay [1] of under 5.00. The “Cmpd/Fex (ratio of the EC50 for the test compound relative to the EC50 of the Fexaramine control)” value in assay [2] is recorded as “+ (‘+’ means Cmpd/Fex > 100)”.

`COC(=O)/C=C/c1cccc(N(Cc2ccc(-c3ccccc3C)cc2)C(=O)C2CCCCC2)c1` [compound 21, (E)-Methyl 3-(3-(N-((2′-methyl-[1,1′-biphenyl]-4-yl)methyl)cyclohexanecarboxamido)phenyl)acrylate]: in assay [1], the pEC50 was 5.00 to 6.00. The “Cmpd/Fex (ratio of the EC50 for the test compound relative to the EC50 of the Fexaramine control)” value in assay [2] is recorded as “+++ (‘+++’ means Cmpd/Fex < 10)”.

`COC(=O)/C=C/c1cccc(N(Cc2cccc3ccccc23)C(=O)C2CCCCC2)c1` [compound 80, (E)-Methyl 3-(3-(N-(naphthalen-1-ylmethyl)cyclohexanecarboxamido)phenyl) acrylate] gave a pEC50 in assay [1] of under 5.00. Besides, the “Cmpd/Fex (ratio of the EC50 for the test compound relative to the EC50 of the Fexaramine control)” value in assay [2] is recorded as “+ (‘+’ means Cmpd/Fex > 100)”.

What is called pEC50 is the EC50 on a negative log10 scale, so that one unit is a factor of ten.
